{"source": "patent US20240158418A1", "about": "(C4 Therapeutics, Inc., priority 2021, published 2024)", "data": [{"target": "T1, EGFR L858R-T790M (Homo sapiens, UniProt P00533, L858R/T790M)", "T1 construct": "NCI-H1975 (harboring EGFR heterozygous L858R-T790M mutations); host or cells: NCI-H1975", "T1 sequence (P00533 25-1210 T790M/L858R)": "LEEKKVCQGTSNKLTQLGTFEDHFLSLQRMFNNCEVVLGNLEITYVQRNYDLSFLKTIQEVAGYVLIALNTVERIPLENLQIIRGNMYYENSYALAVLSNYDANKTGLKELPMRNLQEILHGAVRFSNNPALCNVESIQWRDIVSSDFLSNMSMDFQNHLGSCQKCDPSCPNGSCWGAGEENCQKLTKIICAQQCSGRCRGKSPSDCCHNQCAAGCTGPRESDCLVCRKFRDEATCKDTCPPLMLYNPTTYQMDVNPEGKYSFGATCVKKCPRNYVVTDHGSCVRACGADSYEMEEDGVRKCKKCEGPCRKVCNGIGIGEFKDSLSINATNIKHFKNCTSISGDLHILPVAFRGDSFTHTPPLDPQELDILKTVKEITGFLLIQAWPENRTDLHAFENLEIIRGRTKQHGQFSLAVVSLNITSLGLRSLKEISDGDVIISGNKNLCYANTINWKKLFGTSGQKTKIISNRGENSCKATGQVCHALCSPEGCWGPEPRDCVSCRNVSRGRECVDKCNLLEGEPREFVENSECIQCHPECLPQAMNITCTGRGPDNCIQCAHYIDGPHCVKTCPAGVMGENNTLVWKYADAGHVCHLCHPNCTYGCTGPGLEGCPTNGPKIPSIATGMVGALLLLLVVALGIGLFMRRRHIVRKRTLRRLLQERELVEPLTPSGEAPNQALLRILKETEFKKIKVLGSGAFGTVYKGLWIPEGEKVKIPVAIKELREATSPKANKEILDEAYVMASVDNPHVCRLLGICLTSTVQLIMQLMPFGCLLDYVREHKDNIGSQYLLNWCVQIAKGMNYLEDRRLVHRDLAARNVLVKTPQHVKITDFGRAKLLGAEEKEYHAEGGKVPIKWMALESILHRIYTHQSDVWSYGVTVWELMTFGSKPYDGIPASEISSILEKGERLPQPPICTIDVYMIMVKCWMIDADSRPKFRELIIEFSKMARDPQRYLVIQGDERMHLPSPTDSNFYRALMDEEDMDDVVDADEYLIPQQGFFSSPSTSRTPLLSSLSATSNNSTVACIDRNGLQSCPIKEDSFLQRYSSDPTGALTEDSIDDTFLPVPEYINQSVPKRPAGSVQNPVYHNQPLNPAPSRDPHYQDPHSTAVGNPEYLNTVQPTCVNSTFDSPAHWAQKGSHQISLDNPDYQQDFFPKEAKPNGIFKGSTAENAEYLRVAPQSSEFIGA", "test": "EGFR degradation, Total EGFR (L858R-specific) HTRF, NCI-H1975", "format": "cell-based", "details": "Table 9A; NCI-H1975 cells, 6 hours, Total EGFR HTRF; read-out: H1975 EGFR DC50", "excerpt": "(§1) NCI-H1975 (harboring EGFR heterozygous L858R-T790M mutations) and NCI-H3255 (harboring EGFR heterozygous L858R mutation) were purchased from ATCC and NCI, respectively. NCI-H1975+CS (harboring EGFR heterozygous L858R-T790M-C797S mutations) was generated using CRISPR technology to introduce the additional C797S mutation by Horizon Discovery. A431 (harboring EGFR wildtype) was purchased from ATCC. RPMI 1640 no-phenol red medium and fetal bovine serum (FBS) were purchased from Gibco (Grand Island, NY, USA). Cell culture flasks and 384-well microplates were acquired from VWR (Radnor, PA, USA). Phosphorylated (pY1068) EGFR and Total EGFR (using L858R-specific detection antibody and pan-EGFR antibody for EGFR mutant cell lines and EGFR wild-type cell lines, respectively) HTRF assay kits were purchased from Cisbio (Bedford, MA, USA).\n(§2) Degradation of EGFR protein containing L858R mutation or wild-type was determined based on quantification of FRET signal using a Total EGFR (L858R-specific or pan-EGFR detecting) HTRF assay kit. Phospho-EGFR (pEGFR) inhibition was determined based on quantification of FRET signal using a pY1068 EGFR HTRF assay kit. In separate assay plates, test compounds were added to the 384-well plate from a top concentration of 10 μM with 11 points, half log titration in duplicates. For each assay, 12.5 uL of cells suspended in assay media (RPMI 1640 no-phenol red medium+10% FBS) at cell densities indicated for each cell line in Table 8 below were dispensed using a multi-channel pipette to 384-well low volume white HTRF microplates containing a duplicate concentration range of test compounds and DMSO controls. The plates were kept at 37° C. with 5% CO2 for 6 hours and then incubated with either phospho EGFR or Total EGFR HTRF detection antibodies according to the cell line and EGFR mutant being assayed. Cells treated in the absence of the test compound were the negative control. Positive control was set by wells containing all reagents but no cells. FRET signal was acquired on EnVision™ Multilabel Reader (PerkinElmer, Santa Clara, CA, USA). Compound concentration that achieves 50% degradation and inhibition was reported as DC50 and IC50, respectively.", "units": {"DC50": "nM"}, "values": [{"smiles": "O=C1CCC(N2Cc3c(OC4CCN(C(=O)CCCN5CCN(c6ccc(-c7ccc8cn(C(C(=O)Nc9nccs9)c9ncn%10c9CCC%10)nc8c7F)cn6)CC5)CC4)cccc3C2=O)C(=O)N1", "note": "(racemic) [Compound 62, (2RS)-2-(6,7-Dihydro-5H-pyrrolo[1,2-c]imidazol-1-yl)-2-[7-fluoro-6-[6-[4-[4-oxo-4-[4-[1-oxo-2-[(3RS)-2,6-dioxo-3-piperidyl]isoindolin-4-yl]oxy-1-piperidyl]butyl]piperazin-1-yl]-3-pyridyl]indazol-2-yl]-N-thiazol-2-yl-acetamide]", "DC50": "< 50"}, {"smiles": "O=C1NC(=O)C2(Nc3ccc(C4CCN(CC(=O)N5CCC(Oc6ccc(-c7cc(F)c8c(c7)C(=O)N(C(C(=O)Nc7nccs7)c7ncn9c7CCC9)C8)cc6)CC5)CC4)cc3)CC1C2", "note": "(centres unmarked) [Compound 38, 2-(6,7-dihydro-5H-pyrrolo[1,2-c]imidazol-1-yl)-2-(6-(4-((1-(2-(4-(4-((2,4-dioxo-3-azabicyclo[3.1.1]heptan-1-yl)amino)phenyl)piperidin-1-yl)acetyl)piperidin-4-yl)oxy)phenyl)-4-fluoro-1-oxoisoindolin-2-yl)-N-(thiazol-2-yl)acetamide]", "DC50": "50 to 150"}]}, {"target": "T1, EGFR L858R-T790M", "test": "EGFR degradation, Total EGFR (L858R-specific) HTRF, NCI-H1975", "format": "cell-based", "details": "Table 9B; NCI-H1975 cells, 6 hours, Total EGFR HTRF; read-out: H1975 EGFR DC50", "excerpt": "as §1, §2", "units": {"DC50": "nM"}, "values": [{"smiles": "O=C1CCN(c2ccc(N3CCC(O)(CC(=O)N4CC5(CCN(c6ccc(-c7cc(F)c8c(c7)C(=O)N(C(C(=O)Nc7nccs7)c7ncn9c7CCC9)C8)cc6)CC5)C4)CC3)c(F)c2)C(=O)N1", "note": "(centres unmarked) [Compound 163, 2-(6,7-dihydro-5H-pyrrolo[1,2-c]imidazol-1-yl)-2-[6-[4-[2-[2-[1-[4-(2,4-dioxohexahydropyrimidin-1-yl)-2-fluoro-phenyl]-4-hydroxy-4-piperidyl]acetyl]-2,7-diazaspiro[3.5]nonan-7-yl]phenyl]-4-fluoro-1-oxo-isoindolin-2-yl]-N-thiazol-2-yl-acetamide]", "DC50": "< 50"}, {"smiles": "Cn1nc(N2CCC(=O)NC2=O)c2ccc(C3CCN(CC(=O)N4C[C@H]5C[C@@H]4CN5c4ccc(-c5cc(F)c6c(c5)C(=O)N(C(C(=O)Nc5nccs5)c5ncn7c5CCC7)C6)cc4)CC3)cc21", "note": "(stereo partly drawn) [Compound 82, 2-(6,7-dihydro-5H-pyrrolo[1,2-c]imidazol-1-yl)-2-(6-(4-((1R,4R)-5-(2-(4-(3-(2,4-dioxotetrahydropyrimidin-1(2H)-yl)-1-methyl-1H-indazol-6-yl)piperidin-1-yl)acetyl)-2,5-diazabicyclo[2.2.1]heptan-2-yl)phenyl)-4-fluoro-1-oxoisoindolin-2-yl)-N-(thiazol-2-yl)acetamide]", "DC50": "> 150"}, {"smiles": "Cn1nc(N2CCC(=O)NC2=O)c2cc(F)c(C3CCN(CC(=O)N4CC5(C4)CN(c4ccc(-c6cc(F)c7c(c6)C(=O)N(C(C(=O)Nc6nccs6)c6ncn8c6CCC8)C7)cc4)C5)CC3(F)F)cc21", "note": "(single isomer, unassigned; isomer 1) [Compound 129, 2-(6,7-dihydro-5H-pyrrolo[1,2-c]imidazol-1-yl)-2-[6-[4-[2-[2-[4-[3-(2,4-dioxohexahydropyrimidin-1-yl)-5-fluoro-1-methyl-indazol-6-yl]-3,3-difluoro-1-piperidyl]acetyl]-2,6-diazaspiro[3.3]heptan-6-yl]phenyl]-4-fluoro-1-oxo-isoindolin-2-yl]-N-thiazol-2-yl-acetamide, isomer 1]", "DC50": "< 50"}, {"smiles": "O=C1CC[C@H](Nc2ccc(N3CCC(O)(CC(=O)N4CC5(C4)CN(c4ccc(-c6cc(Cl)c7c(c6)C(=O)N(C(C(=O)Nc6nccs6)c6ncn8c6CCC8)C7)cc4)C5)CC3)c(F)c2)C(=O)N1", "note": "(stereo partly drawn) [Compound 136, 2-[4-chloro-6-[4-[2-[2-[1-[4-[[(3S)-2,6-dioxo-3-piperidyl]amino]-2-fluoro-phenyl]-4-hydroxy-4-piperidyl]acetyl]-2,6-diazaspiro[3.3]heptan-6-yl]phenyl]-1-oxo-isoindolin-2-yl]-2-(6,7-dihydro-5H-pyrrolo[1,2-c]imidazol-1-yl)-N-thiazol-2-yl-acetamide]", "DC50": "< 50"}, {"smiles": "Cn1nc(N2CCC(=O)NC2=O)c2ccc(C3CCN(CC(=O)N4CC5(C4)CN(c4ccc(-c6cc(F)c7c(c6)C(=O)N(C(C(=O)Nc6nccs6)c6ncn8c6CCC8)C7)cc4)C5)CC3F)cc21", "note": "(centres unmarked) [Compound 133, 2-(6,7-dihydro-5H-pyrrolo[1,2-c]imidazol-1-yl)-2-[6-[4-[2-[2-[4-[3-(2,4-dioxohexahydropyrimidin-1-yl)-1-methyl-indazol-6-yl]-3-fluoro-1-piperidyl]acetyl]-2,6-diazaspiro[3.3]heptan-6-yl]phenyl]-4-fluoro-1-oxo-isoindolin-2-yl]-N-thiazol-2-yl-acetamide]", "DC50": "< 50"}, {"smiles": "O=C1CCC(Nc2cc(F)c(N3CCC(O)(CC(=O)N4CCC5(CC4)CN(c4ccc(-c6cc(F)c7c(c6)C(=O)N(C(C(=O)Nc6nccs6)c6ncn8c6CCC8)C7)cc4)C5)CC3)c(F)c2)C(=O)N1", "note": "(single isomer, unassigned; isomer 1) [Compound 137, 2-(6,7-dihydro-5H-pyrrolo[1,2-c]imidazol-1-yl)-2-[6-[4-[7-[2-[1-[4-[2,6-dioxo-3-piperidyl]amino]-2,6-difluoro-phenyl]-4-hydroxy-4-piperidyl]acetyl]-2,7-diazaspiro[3.5]nonan-2-yl]phenyl]-4-fluoro-1-oxo-isoindolin-2-yl]-N-thiazol-2-yl-acetamide, isomer 1]", "DC50": "50 to 150"}, {"smiles": "O=C1CCC(Nc2ccc(N3CCC(O)(CC(=O)N4CCC5(C4)CN(c4ccc(-c6cc(F)c7c(c6)C(=O)N(C(C(=O)Nc6nccs6)c6ncn8c6CCC8)C7)cc4)C5)CC3)c(F)c2)C(=O)N1", "note": "(centres unmarked) [Compound 115, 2-(6,7-dihydro-5H-pyrrolo[1,2-c]imidazol-1-yl)-2-[6-[4-[7-[2-[1-[4-[(2,6-dioxo-3-piperidyl)amino]-2-fluoro-phenyl]-4-hydroxy-4-piperidyl]acetyl]-2,7-diazaspiro[3.4]octan-2-yl]phenyl]-4-fluoro-1-oxo-isoindolin-2-yl]-N-thiazol-2-yl-acetamide]", "DC50": "< 50"}, {"smiles": "Cn1nc(N2CCC(=O)NC2=O)c2ccc(C3CCN(CC(=O)N4CC5(C4)CN(c4ccc(-c6cc(F)c7c(c6)C(=O)N(C(C(=O)Nc6nccs6)c6ncn8c6C[C@@H](F)C8)C7)cc4)C5)CC3(F)F)cc21", "note": "(stereo partly drawn) [Compound 116, 2-[6-[4-[2-[2-[4-[3-(2,4-dioxohexahydropyrimidin-1-yl)-1-methyl-indazol-6-yl]-3,3-difluoro-1-piperidyl]acetyl]-2,6-diazaspiro[3.3]heptan-6-yl]phenyl]-4-fluoro-1-oxo-isoindolin-2-yl]-2-[(6R)-6-fluoro-6,7-dihydro-5H-pyrrolo[1,2-c]imidazol-1-yl]-N-thiazol-2-yl-acetamide]", "DC50": "< 50"}, {"smiles": "Cn1nc(N2CCC(=O)NC2=O)c2ccc(C3CCN(CC(=O)N4CCC5(CC4)CN(c4ccc(-c6cc(F)c7c(c6)C(=O)N(C(C(=O)Nc6nccs6)c6ncn8c6CCC8)C7)cc4)C5)CC3(F)F)cc21", "note": "(centres unmarked) [Compound 174]", "DC50": "< 50"}, {"smiles": "O=C1CCN(c2ccc(N3CCC(O)(CC(=O)N4CC5(C4)CN(c4ccc(-c6cc(F)c7c(c6)C(=O)N(C(C(=O)Nc6nccs6)c6ncn8c6CCC8)C7)cc4)C5)CC3)c(F)c2)C(=O)N1", "note": "(centres unmarked) [Compound 156, 2-(6,7-dihydro-5H-pyrrolo[1,2-c]imidazol-1-yl)-2-[6-[4-[2-[2-[1-[4-(2,4-dioxohexahydropyrimidin-1-yl)-2-fluoro-phenyl]-4-hydroxy-4-piperidyl]acetyl]-2,6-diazaspiro[3.3]heptan-6-yl]phenyl]-4-fluoro-1-oxo-isoindolin-2-yl]-N-thiazol-2-yl-acetamide]", "DC50": "50 to 150"}, {"smiles": "O=C1CC[C@H](Nc2ccc(N3CCC(O)(CC(=O)N4CCC(n5cc(-c6cc(F)c7c(c6)C(=O)N(C(C(=O)Nc6nccs6)c6ncn8c6CCC8)C7)cn5)CC4)CC3)c(F)c2)C(=O)N1", "note": "(stereo partly drawn) [Compound 142, 2-(6,7-dihydro-5H-pyrrolo[1,2-c]imidazol-1-yl)-2-[6-[1-[1-[2-[1-[4-[[(3S)-2,6-dioxo-3-piperidyl]amino]-2-fluoro-phenyl]-4-hydroxy-4-piperidyl]acetyl]-4-piperidyl]pyrazol-4-yl]-4-fluoro-1-oxo-isoindolin-2-yl]-N-thiazol-2-yl-acetamide]", "DC50": "< 50"}, {"smiles": "Cn1nc(N2CCC(=O)NC2=O)c2ccc(C3CCN(CC(=O)N4CCN(c5ccc(-c6cc(F)c7cn(C(C(=O)Nc8nccs8)c8ncn9c8CCC9)nc7c6)cn5)CC4)CC3(F)F)cc21", "note": "(centres unmarked) [Compound 72, 2-(6,7-dihydro-5H-pyrrolo[1,2-c]imidazol-1-yl)-2-(6-(6-(4-(2-(4-(3-(2,4-dioxotetrahydropyrimidin-1(2H)-yl)-1-methyl-1H-indazol-6-yl)-3,3-difluoropiperidin-1-yl)acetyl)piperazin-1-yl)pyridin-3-yl)-4-fluoro-2H-indazol-2-yl)-N-(thiazol-2-yl)acetamide]", "DC50": "< 50"}]}]}
